Assay results from patent EP0435794A1, “Alkenyl- or heteroaryl thio, sulfone, sulfoxy herbicides” (RHONE-POULENC AGROCHIMIE, priority 1989, dated 1991).

Experiments:
Type in all cases: in vivo
[1] = test system: Avena fatua; assay: Exemple A: herbicide application, pre-emergence; details: dose 4 Kg m.a./ha, notation 0 à 5 after 24 days
Excerpt: (§1) Exemple A - Application herbicide, en prélevée des espèces végétales
(§2) Dans des pots de 7 x 7 x 8 cm remplis de terre agricole légère, on sème un nombre de graines déterminé en fonction de l'espèce végétale et de la grosseur de la graine.
(§3) Les pots sont traités par pulvérisation de bouillie en quantité correspondant à une dose volumique d'application de 500 l/ha et contenant la matière active à la concentration désirée.
(§4) Le traitement avec la bouillie est donc effectué sur des graines non recouvertes de terre (on utilise le terme de bouillie pour désigner, en général, les compositions diluées à l'eau, telles qu'on les applique sur les végétaux).
(§5) La bouillie utilisée pour le traitement est une solution ou suspension de la matière active dans un mélange acétone/eau en proportions 50/50, en présence de 0,05 % en poids de cemulsol NP 10 (agent tensio-actif) constitué d'alkylphénol polyéthoxylé, notamment de nonylphénol polyéthoxylé) et 0,04 % en poids de tween 20 (agent tensio-actif constitué d'un oléate de dérivé polyoxyéthyléné du sorbitol).
(§6) Dans le cas d'une suspension, celle-ci est obtenue en mélangeant et broyant les ingrédients dans un microniseur de façon à obtenir une grosseur moyenne de particules inférieure à 40 microns.
(§7) Après traitement, on recouvre les graines d'une couche de terre d'environ 3 mm d'épaisseur.
(§8) Les pots sont alors placés dans des bacs destinés à recevoir l'eau d'arrosage, en subirrigation, et maintenus pendant 24 jours à température ambiante sous 70 % d'humidité relative.
(§9) Le relevé est effectué de la façon suivante:
(§10) Au bout de 24 jours, on mesure un pourcentage (D) des destructions du nombre de pieds dans le pot traité par rapport au nombre de plantes dans les pots non traités (témoin). On mesure, sur les plantes traitées restantes, le pourcentage de réduction de taille (RT) par rapport aux plantes témoin.
(§11) Le pourcentage du volume foliaire non détruit par le produit est donc donné par la formule: ([100-D] x [100-RT])/(100)= A [formula]
(§12) Cette valeur A est transformée en notation de 0 à 5 selon l'échelle suivante:
(§13) Les résultats obtenus sont présentés après l'exemple B pour des doses d'application de 4000 g/ha à 1000 g/ha.
(§14) Les espèces végétales utilisées dans ces exemples A et B sont: […]

[2] = test system: Echinochloa crus galli; assay: Exemple A: herbicide application, pre-emergence; details: dose 4 Kg m.a./ha, notation 0 à 5 after 24 days
Excerpt: as §1, §2, §3, §4, §5, §6, §7, §8, §9, §10, §11, §12, §13, §14

[3] = test system: Alopecurus myosuroïdes; assay: Exemple A: herbicide application, pre-emergence; details: dose 4 Kg m.a./ha, notation 0 à 5 after 24 days
Excerpt: as §1, §2, §3, §4, §5, §6, §7, §8, §9, §10, §11, §12, §13, §14

[4] = test system: Digitaria sanguinalis; assay: Exemple A: herbicide application, pre-emergence; details: dose 4 Kg m.a./ha, notation 0 à 5 after 24 days
Excerpt: as §1, §2, §3, §4, §5, §6, §7, §8, §9, §10, §11, §12, §13, §14

[5] = test system: Cyperus esculentus; assay: Exemple A: herbicide application, pre-emergence; details: dose 4 Kg m.a./ha, notation 0 à 5 after 24 days
Excerpt: as §1, §2, §3, §4, §5, §6, §7, §8, §9, §10, §11, §12, §13, §14

[6] = test system: riz; assay: Exemple C: selectivity test in field crops, pre-emergence (crop); details: dose 0.5 Kg m.a./ha, 24 days, 0 or 1 = selective; note: ranges in brackets are in %
Excerpt: (§15) Exemple C - Essai de sélectivité en grandes cultures avec application herbicide, en prélevée des espèces végétales
(§16) Dans des pots de 7 X 7 X 8 cm remplis de terre agricole légère, on sème un nombre de graines déterminé en fonction de l'espèce végétale et de la grosseur de la graine.
(§17) On recouvre ensuite les graines d'une couche de terre d'environ 3 mm d'épaisseur.
(§18) Les pots sont alors traités par pulvérisation de bouillie en quantité correspondant à une dose volumique d'application de 500 l/ha et contenant la matière active à la concentration désirée.
(§19) La bouillie a été préparée de la même manière qu'à l'exemple A.
(§20) Les pots traités sont ensuite placés dans des bacs destinés à recevoir l'eau d'arrosage, en subirrigation, et maintenus pendant 24 jours à température ambiante sous 70 % d'humidité relative.
as §9
(§21) Au bout de 24 jours, on mesure un pourcentage (D) de destruction du nombre de pieds dans le pot traité par rapport au nombre de plantes dans les pots non traités (témoin). On mesure, sur les plantes traitées restantes, le pourcentage de réduction de taille (RT) par rapport aux plantes témoins.
(§22) Le pourcentage de volume foliaire non détruit par le produit est donc donné par la formule: ([100-D] X [100-RT])/(100)= A [formula]
as §12
(§23) Ainsi, un produit est jugé comme sélectif vis à vis de la culture lorsque la valeur A notée est de 0 ou 1.
(§24) Les résultats obtenus sont présentés dans l'exemple C pour des doses d'application de 500, 1000, 2000 ou 4000 g de matière active par hectare selon les produits.
(§25) Les espèces végétales utilisées dans cet exemple sont:
(§26) Comme on peut le voir sur le tableau de résultats de cet exemple C, de nombreux produits présentent une excellente activité antigraminée de prélevée tout en montrant une excellente sélectivité pour 1 ou 2 ou 3 ou 4 des 4 cultures testées = blé, maïs, riz, soja.

[7] = test system: maïs; assay: as above; details: dose 0.5 Kg m.a./ha, 24 days, 0 or 1 = selective; note: ranges in brackets are in %
Excerpt: as §15, §16, §17, §18, §19, §20, §9, §21, §22, §12, §23, §24, §25, §26

[8] = test system: blé; assay: as above; details: dose 0.5 Kg m.a./ha, 24 days, 0 or 1 = selective; note: ranges in brackets are in %
Excerpt: as §15, §16, §17, §18, §19, §20, §9, §21, §22, §12, §23, §24, §25, §26

[9] = test system: soja; assay: as above; details: dose 0.5 Kg m.a./ha, 24 days, 0 or 1 = selective; note: ranges in brackets are in %
Excerpt: as §15, §16, §17, §18, §19, §20, §9, §21, §22, §12, §23, §24, §25, §26

[10] = test system: Setaria faberii; assay: Exemple C: selectivity test in field crops, pre-emergence (weed); details: dose 0.5 Kg m.a./ha, 24 days
Excerpt: as §15, §16, §17, §18, §19, §20, §9, §21, §22, §12, §23, §24
(§27) Les espèces végétales utilisées dans cet exemple sont: […]

[11] = test system: Panicum milicaeum; assay: as above; details: dose 0.5 Kg m.a./ha, 24 days
Excerpt: as §15, §16, §17, §18, §19, §20, §9, §21, §22, §12, §23, §24, §27

[12] = test system: Sorghum halepense; assay: as above; details: dose 0.5 Kg m.a./ha, 24 days
Excerpt: as §15, §16, §17, §18, §19, §20, §9, §21, §22, §12, §23, §24, §27

[13] = test system: Echinochloa crus-galli; assay: as above; details: dose 0.5 Kg m.a./ha, 24 days
Excerpt: as §15, §16, §17, §18, §19, §20, §9, §21, §22, §12, §23, §24, §27

[14] = test system: Digitaria sanguinalis; assay: as above; details: dose 0.5 Kg m.a./ha, 24 days
Excerpt: as §15, §16, §17, §18, §19, §20, §9, §21, §22, §12, §23, §24, §27

[15] = test system: Alopecurus myosuroides; assay: as above; details: dose 0.5 Kg m.a./ha, 24 days
Excerpt: as §15, §16, §17, §18, §19, §20, §9, §21, §22, §12, §23, §24, §27

SMILES | ACTIVITE HERBICIDE DE PRELEVEE AVE [1] | ACTIVITE HERBICIDE DE PRELEVEE ECH [2] | ACTIVITE HERBICIDE DE PRELEVEE ALO [3] | ACTIVITE HERBICIDE DE PRELEVEE DIG [4] | ACTIVITE HERBICIDE DE PRELEVEE CYP [5] | Notation de l'activité herbicide ORY [6] | Notation de l'activité herbicide ZEA [7] | Notation de l'activité herbicide TRZ [8] | Notation de l'activité herbicide GLY [9] | Notation de l'activité herbicide SET [10] | Notation de l'activité herbicide PAN [11] | Notation de l'activité herbicide SOR [12] | Notation de l'activité herbicide ECh [13] | Notation de l'activité herbicide DIG [14] | Notation de l'activité herbicide ALO [15]
C=C(CS(=O)(=O)c1cccs1)c1cccc(Cl)n1 [compound 4, 2-(6-chloro 2-pyridyl) 1-(2-thiénylsulfonyl) 2-propène] | 3 (30 à 50) | 5 (O à 10) | 5 (O à 10) | 5 (O à 10) | 5 (O à 10) |  |  |  |  |  |  |  |  |  | 
O=S(=O)(CC(O)(CBr)c1cccc(F)c1)c1sccc1Cl (stereo not drawn) [compound 67] |  |  |  |  |  | 0 (90 à 100) | 1 (70 à 90) | 0 (90 à 100) | 0 (90 à 100) | 4 (10 à 30) | 4 (10 à 30) | 1 (70 à 90) | 4 (10 à 30) | 5 (O à 10) | 2 (50 à 70)
